# According to patent US11833225B2, “Methods and compositions for efficient gene deletion” (CRISPR Therapeutics AG, priority 2018, dated 2023):
# Values joined by “and” are separate entries in the source; they are usually repeats but may differ in a detail not shown here. Identical values can stand only once.
# B1: HPFH5-1: 3′ gRNA targeting the HPFH5 locus, SEQ ID NO: 2, used with Cas9 protein (nucleic acid)
# guide: AUUUUUCUUAUUCAAUACCUGUUUUAGAGCUAGAAAUAGCAAGUUAAAAUAAGGCUAGUCCGUUAUCAACUUGAAAAAGUGGCACCGAGUCGGUGCUUUU
# modifications: listed as RNA, chemistry not given here
# B2: HPFH5-5: 3′ gRNA targeting the HPFH5 locus, SEQ ID NO: 4, used with Cas9 protein (nucleic acid)
# guide: CUCCCCCACUCACAGUGACCGUUUUAGAGCUAGAAAUAGCAAGUUAAAAUAAGGCUAGUCCGUUAUCAACUUGAAAAAGUGGCACCGAGUCGGUGCUUUU
# modifications: listed as RNA, chemistry not given here
# B3: HPFH5-D: 5′ gRNA targeting the HPFH5 locus, SEQ ID NO: 6, used with Cas9 protein (nucleic acid)
# guide: CUGUUGGUUUCAGAGCAGGUGUUUUAGAGCUAGAAAUAGCAAGUUAAAAUAAGGCUAGUCCGUUAUCAACUUGAAAAAGUGGCACCGAGUCGGUGCUUUU
# modifications: listed as RNA, chemistry not given here
# What was measured:
# Format in all cases: cell-based, human
# [1] = test system: CCR5 gene; assay: CCR5 deletion frequency by ddPCR in edited CD34+ cells
# Source text: The C-C chemokine receptor type 5 (CCR5) is a key player in HIV infection due to its major involvement in the infection process. A limited number of people harbor a genomic 32-bp deletion in the CCR5 gene ([…]), leading to expression of a truncated gene product that provides resistance to HIV-1 infection in individuals homozygous for this mutation. Dual gRNAs were designed to target this region of the CCR5 gene. FIG. 8 diagrams the CCR5 gene and the location of TB48 gRNA and TB7 gRNA target sites (bordering a 735 bp deletion).
# Human peripheral blood CD34+ cells were cultured and as electroporated with Cas9 and the two gRNAs essentially as described above in Example 1. Nu7441 was delivered to the cells (0, 1.25, 2.5, 5 μM) immediately after electroporation. Deletion efficiency was determined by ddPCR two days after electroporation.
# Additional gRNAs were designed to delete larger segments from CCR5, i.e., TB74 and TB 25 for a 5700 bp deletion, and TB48 and TB25 for a 2672 bp deletion (FIG. 10). The gRNAs (and Cas9) were introduced at two dose levels (0.75 or 1.5 μg each) and cells were exposed to 0, 2.5, or 5 μM Nu7441.
# Another DNA-PK inhibitor, M3814, was tested to determine whether deletions were increased in its presence. Populations of newly electroporated cells were exposed to four concentrations of M3814 ranging from 0.078 μM to 0.625 μM.
# [2] = test system: CD34+ hHSPCs; assay: Cell proliferation (fold growth) by hemocytometer counting
# Procedure: Cell proliferation was also assessed using a cell counting device (hemocytometer).
# [3] = test system: HPFH5; assay: Colony forming assay (CFU), clonal editing analysed by ddPCR
# Procedure: The effects of Nu7441 on CRISPR-Cas9 gene editing using the dual gRNA approach (HPFH5-1 and HPFH5-D) was measured using a colony forming assay (CFU). CFU assay is an in vitro cellular assay that measures the proliferation and differentiation potential of human HSPCs. Following electroporation with dual gRNAs/Cas9 and treatment with Nu7441 (2.5 μM), CD34+ hHSPCs were diluted and plated in suspension in the presence of methylcellulose to promote stem cell differentiation. After 14 days, colonies grown from single erythroid-lineage HSPCs were analyzed for gene editing by ddPCR (Table 3).
# [4] = test system: CD34+ hHSPCs; assay: Cell viability by Trypan blue
# Procedure: Cell viability was also assessed using Trypan blue, a standard method for detecting hematopoietic stem cell viability.
# [5] = test system: HPFH5; assay: Tracking of Indels by Decomposition (TIDE), single gRNA indel and MMEJ species
# Procedure: Tracking of Indels by Decomposition (TIDE) was utilized to determine if treatment with Nu7441 results in increased single gRNA indels as a result of NHEJ inhibition. This technology precisely determines the spectrum and frequency of indels and MMEJ species generated by single HPFH5-1 gRNA or HPFH5-D gRNAs in the presence of Nu7441 by comparing the results of standard PCR reactions and Sanger sequencing reactions. Cells were electroporated with 1.5 μg Cas and 1.5 μg HPFH5-D or 1.5 μg HPFH5-1 or no gRNA. Cells were treated with 0, 0.625 μM, 1.25 μM, 2.5 μM, or 5 μM Nu7441.
# [6] = test system: HPFH5; assay: HPFH5 deletion frequency by droplet digital PCR (ddPCR) in edited CD34+ hHSPCs; settings: increased from 30% without inhibitor, dose-dependent, 0.3125-5 μM; Cas9 + dual gRNAs; 48 hours post electroporation
# Procedure: Mobilized human peripheral blood (mPB) CD34+ cells from three independent human donors were cultured in serum free CellGro® media including 100 ng/ml recombinant human stem cell factor (SCF), 100 ng/ml recombinant human Flt 3-Ligand (FLT3L), and 100 ng/ml Thrombopoietin (TPO). 100,000 cells per condition were electroporated using Lonza Amaxa 4D electroporator without any CRISPR/Cas9 editing components as a negative control (mock electroporation sample), with HPFH5-1+HPFH5-D sgRNAs and Cas9 protein (1+D), or with HPFH5-5+HPFH5-D sgRNAs and Cas9 protein (5+D). The recombinant S. pyogenes Cas9 protein was flanked by two SV40 nuclear localization sequences (NLSs). These experiments were performed using a ribonucleoprotein (RNP) 1:1 weight ratio of gRNA to Cas9.
# The deletion frequency was determined by droplet digital PCR (ddPCR) two days after electroporation for each cell population (i.e., mock, 1+D, and 5+D).
# Dual gRNAs (HPFH5-1 and HPFH-D, or HPFH5-5 and HPFH-D), as well as Cas9 protein, were also titrated in CD34+ hHSPCs. […]
# The deletion frequency was determined by droplet digital PCR (ddPCR) two days after electroporation for each of the cells electroporated with HPFH5-1+HPFH5-D gRNAs, or cells electroporated with HPFH5-5+HPFH5-D gRNAs.
# [7] = test system: HPFH5; assay: Single gRNA and Cas9 titration, single guide editing percentage in CD34+ hHSPCs; settings: 48 hour post-electroporation
# Source text: Single HPFH5-1, HPFH5-5 and HPFH5-D gRNAs, as well as Cas9 protein, were titrated in CD34+ hHSPCs to determine the effects on deletion efficiency.
# [8] = HPFH5-1 + HPFH5-D gRNAs/Cas9 + 2.5 μM Nu7441
# [9] = HPFH5-1 + HPFH5-D gRNAs/Cas9 + 2.5 μM Nu7441, colonies after 14 days
molecule,measurement,setting,value
"COc1ccc([C@@H](O)c2cc(-c3ncnc4cc(N5CCOCC5)ccc34)c(F)cc2Cl)nn1 [M3814, (S)-(2-chloro-4-fluoro-5-(7-morpholinoquinazolin-4-yl)phenyl)(6-methoxypyridazin-3-yl)methanol]",percentage of deletions in CCR5,"[1]; four concentrations from 0.078 μM to 0.625 μM, TB74+TB25 or TB48+TB25 gRNAs, 48 hours post electroporation",increased in a dose-dependent manner
same,percentage increase in deletions in CCR5 compared with Nu7441,[1]; highest concentration (0.625 μM),about the same percentage increase in deletions as Nu7441
"O=c1cc(N2CCOCC2)oc2c(-c3cccc4c3sc3ccccc34)cccc12 [Nu7441, 8-(4-dibenzothienyl)-2-(4-morpholinyl)-4H-1-benzopyran-4-one]",cell proliferation (fold growth),"[2]; concentrations of less than 5 μM, 48 hours post electroporation",did not adversely affect cell proliferation
same,cell proliferation,[2]; highest concentration (5 μM),reduced
same,increase of percentage of HPFH5 heterozygotes relative to untreated cells,[3]; 2.5 μM Nu7441,3 fold
same,% Alleles edited from clones,[3]; [8],40%
same,% Edited cells,[3]; [8],63%
same,Bulk editing from ddPCR,[3]; [8],43%
same,% Heterozygotes,[3]; [9],46.2%
same,% Homozygotes,[3]; [9],17.3%
same,% WT,[3]; [9],36.5%
same,# Edited alleles,"[3]; HPFH5-1 + HPFH5-D gRNAs/Cas9 + 2.5 μM Nu7441, of 104 total alleles (52 clones)",42
same,increase of number of alleles edited from clones,[3]; in the presence of Nu7441 (2.5 μM),2 fold
same,cell viability,"[4]; CCR5 editing with TB48 + TB7 gRNAs, highest concentration (5 μM)",decreased slightly
same,cell viability,"[4]; concentrations of less than 5 μM, 48 hours post electroporation, HPFH5 dual gRNAs",did not adversely affect cell viability
same,cell viability,"[4]; highest dose 5 μM, HPFH5 dual gRNAs",slightly reduced
same,potential microhomology-mediated end joining (MMEJ) species,[5]; Cas9 and HPFH5 gRNA,increased
same,effect on single guide editing (indel frequency),"[5]; HPFH5-1 gRNA 1.5 μg + Cas9 1.5 μg, 0.625-5 μM",not major effects
same,effect on indel frequency,"[5]; HPFH5-D gRNA 1.5 μg + Cas9 1.5 μg, higher concentrations",increased indel frequency
same,number of wild-type sequences in HPFH5 relative to untreated cells,"[5]; HPFH5-D gRNA, 5 μM",decrease
same,percentage of 10-15 base pair deletions relative to untreated cells,"[5]; HPFH5-D gRNA, 5 μM",increase
same,HPFH5 deletion efficiency reached with Nu7441,[6],45% and 40%
same,frequency of deletion in CCR5,"[1]; TB48 + TB7 gRNAs (735 bp deletion), 0, 1.25, 2.5, 5 μM, two days after electroporation",increased the frequency of deletion in CCR5 in a dose-dependent manner
same,increase of percent of deletions in CCR5,"[1]; TB48 + TB7 gRNAs, highest dose (5 μM)",more than two-fold
same,increase of the percent of deletions in CCR5,"[1]; TB74 + TB25 (5700 bp) and TB48 + TB25 (2672 bp) gRNAs, 0.75 or 1.5 μg each, 2.5 or 5 μM, all conditions",20-70%
B1,% Single Guide Editing,"[7]; gRNA 1 μg, Cas9 1 μg",35.6%
same,% Single Guide Editing,"[7]; gRNA 2 μg, Cas9 2 μg",62.9%
same,% Single Guide Editing,"[7]; gRNA 3 μg, Cas9 3 μg",72.1%
same,% Single Guide Editing,"[7]; gRNA 4 μg, Cas9 4 μg",75.7%
B2,% Single Guide Editing,"[7]; gRNA 1 μg, Cas9 1 μg",40.5%
same,% Single Guide Editing,"[7]; gRNA 2 μg, Cas9 2 μg",56.5%
same,% Single Guide Editing,"[7]; gRNA 3 μg, Cas9 3 μg",60.3%
same,% Single Guide Editing,"[7]; gRNA 4 μg, Cas9 4 μg",66.3%
B3,% Single Guide Editing,"[7]; gRNA 1 μg, Cas9 1 μg",20.8%
same,% Single Guide Editing,"[7]; gRNA 2 μg, Cas9 2 μg",61.4%
same,% Single Guide Editing,"[7]; gRNA 3 μg, Cas9 3 μg",70.9%
same,% Single Guide Editing,"[7]; gRNA 4 μg, Cas9 4 μg",80.4%
